Measurements as given in US12628833B2, “Composition and method for improving plant growth” (ALGAIA, priority 2019, dated 2026).

Experiments:
Format in all cases: cell-based
[1] = test system: bacterial species with a recognized PGPR (Plant-Growth Promoting Rhizobacteria) effect; experiment: Growth in liquid medium (96-well microplate), bacteria not specified
Method: (§1) The effect of the addition of algae extracts to a […] culture medium on the growth kinetics of seven bacterial species with a recognized PGPR (Plant-Growth Promoting Rhizobacteria) effect was determined: Bacillus megaterium, Bacillus subtilis, Rhizobium leguminosarum, Azotobacter vinelandii, Pseudomonas fluorescens, Pseudomonas fulva, Arthrobacter agilis.
(§2) Nutrient broth NB culture medium (Sigma-Aldrich) at 25 g/L was used for the multiplication of the following bacteria: Bacillus subtilis, Bacillus megaterium, Arthrobacter agilis, Pseudomonas fluorescens, Pseudomonas fulva. YMA medium (Sigma-Aldrich) without agar was used for Rhizobium leguminosarum bacteria.
(§3) Tests in sterile 96-well round-bottom microplates were performed. An absorbance of 0.06 to 0.08 (600 nm) for inoculation of the bacteria into the microplate was used in these tests.
(§4) Microplate plating included a blank, a positive control, a negative control and the samples.
(§5) The positive control was composed of bacteria and optimum culture medium (nutrient broth NB), in order to verify good multiplication of the bacteria in the microplates.
(§6) The negative control consisted of sterilized distilled water devoid of carbonaceous elements with 20 μl of bacteria inoculated with their NB culture medium, in order to determine how bacterial growth behaved in a medium depleted of any carbonaceous elements.
(§7) The blank was distilled water without bacteria in order to determine possible variations in absorbance and potential bacterial contamination.
(§8) The different algal extract tests consisted of sterile distilled water with the tested solutions at different concentrations (66 μl) to which 20 μl of bacteria were added.
(§9) The different seaweed extracts tested are: commercial mannitol, commercial laminarans, composition according to the invention (laminarans extract).
FIGS. 1 to 3 show a growth of bacterial strains in liquid medium using only the generated extract as carbon source for different bacteria.

Pseudomonas fulva = experiment: Growth in liquid medium (96-well microplate, absorbance 600 nm), tested solution as only carbon source
Method: as §1, §2, §3, §4, §5, §6, §7, §8, §9

Pseudomonas fluorescens = experiment: as above
Method: as §1, §2, §3, §4, §5, §6, §7, §8, §9

Bacillus megaterium = experiment: as above
Method: as §1, §2, §3, §4, §5, §6, §7, §8, §9

| Molecule | concentration from which it can be used as a carbon source (increase in bacterial growth) ([1]; used alone) | dependence of the effect on bacterial growth on concentration ([1]; used alone as carbon source) | interaction between bacteria and compound (growth curve versus negative and positive control) (Pseudomonas fulva; concentration 0.3%) | interaction between bacteria and compound (growth curve versus negative and positive control) (Pseudomonas fulva; concentration 0.5%) | interaction between bacteria and compound (growth curve versus negative and positive control) (Pseudomonas fulva; concentration 1%) | interaction between bacteria and compound (growth curve versus negative and positive control) (Pseudomonas fluorescens; concentration 0.3%) | interaction between bacteria and compound (growth curve versus negative and positive control) (Pseudomonas fluorescens; concentration 0.5%) | interaction between bacteria and compound (growth curve versus negative and positive control) (Pseudomonas fluorescens; concentration 1%) | interaction between bacteria and compound (growth curve versus negative and positive control) (Bacillus megaterium; concentration 0.3%) | interaction between bacteria and compound (growth curve versus negative and positive control) (Bacillus megaterium; concentration 0.5%) | interaction between bacteria and compound (growth curve versus negative and positive control) (Bacillus megaterium; concentration 1%) | effect on bacterial growth ([1]; concentrations in the range of <0.01%) | effect on bacterial growth ([1]; especially when the concentration was above 0.1%) | effect on bacterial growth ([1]; concentration not given) | concentration of maximum effect on bacterial growth ([1]; sole source of carbon) [%] | effect on bacterial growth ([1]; sole source of carbon, higher concentrations (2%)) | effect on bacterial growth ([1]; sole source of carbon, lower concentrations (0.1%)) |
| --- | --- | --- | --- | --- | --- | --- | --- | --- | --- | --- | --- | --- | --- | --- | --- | --- | --- |
| laminaran [standard laminaran] | about 1% | the higher the concentration, the greater the effect | absence of interaction between bacteria and compounds | absence of interaction between bacteria and compounds | positive interaction between bacteria and compounds | absence of interaction between bacteria and compounds | absence of interaction between bacteria and compounds | positive interaction between bacteria and compounds | absence of interaction between bacteria and compounds | absence of interaction between bacteria and compounds | positive interaction between bacteria and compounds | – | – | – | – | – | – |
| Fucoidans | – | – | – | – | – | – | – | – | – | – | – | a small improvement in growth | did not seem to show any real positive effect | – | – | – | – |
| Alginates | – | – | – | – | – | – | – | – | – | – | – | – | – | little effect | – | – | – |
| OC[C@@H](O)[C@@H](O)[C@H](O)[C@H](O)CO [purified mannitol, mannitol] | – | – | absence of interaction between bacteria and compounds | absence of interaction between bacteria and compounds | positive interaction between bacteria and compounds | absence of interaction between bacteria and compounds | absence of interaction between bacteria and compounds | positive interaction between bacteria and compounds | absence of interaction between bacteria and compounds | absence of interaction between bacteria and compounds | positive interaction between bacteria and compounds | – | – | – | 1 | very little or no effect | very little or no effect |
